Assay type in all cases: in vivo, mouse
Series [1] is described as follows: LC-MS analysis of alpelisib in kidneys after oral gavage. As to conditions: 2 hours after oral gavage. As for the experimental part: Each tissue type was homogenized in 100% cold methanol with tissue-to-solvent ratio of 1-mg tissue to 5-μl methanol. After sonication of 20 s, the tissue extract was centrifuged at 13,000 g for 30 min and then injected onto a Phenomenex Kinetex XB-C18 HPLC column (100 mm by 2.1 mm) at 45° C. Alpelisib was analyzed by reverse-phase HPLC (Shimadzu LCMS system 8040 interfaced with the LabSolutions software). Twenty […] of tissue extracts were injected onto a column, and the mobile phase used for the separation consisted of two eluants: Solvent A was 0.1% formic acid in ddH20, and solvent B was acetonitrile with 0.1% of formic acid. Compounds were separated by the following discontinuous gradient at a flow rate of 0.6 ml/min: The initial concentration of 20% in solvent B increase to 70% over 6 min, and this was followed by a decrease to 20% over the next minute, and the initial conditions were then maintained for 14 min. The alpelisib was monitored spectrophotometrically by absorbance (photodiode detector) from 205 to 600 nm and by tandem mass detection. The mass measurement was implemented in positive ion mode using multiple reaction monitoring (MRM) with an electrospray ionization source. […] The quantification was done by integration of the peak absorbance area using a calibration curve established with various known concentrations of alpelisib. […]

For series [2], the system named is uninephrectomized PIK3CA^Pod-HO mice. As to the kind of experiment: Uninephrectomized PIK3CA^Pod-HO mice, vehicle or alpelisib. From the text:
(§1) A. Urinary albumin to creatinine ratio of PIK3CAWT and PIK3CAPod-HO mice 2 weeks following uninephrectomy and treated either with vehicle or alpelisib (n=8-9 mice per group). B. Serum creatinine levels, C. blood urea nitrogen (BUN) levels of PIK3CAWT and PIK3CAPod-HO mice 2 weeks following uninephrectomy and treated either with vehicle or alpelisib (n=8-9 mice per group). D. Glomerular lesion score of PIK3CAWT and PIK3CAPod-HO mice 2 weeks following uninephrectomy and treated either with vehicle or alpelisib (n=8-9 mice per group). E. Trajectory of albumin to creatinine ratio in the urine of PIK3CAPod-HO mice following uninephrectomy and treated with either vehicle or alpelisib (n=8-9 mice per group).
(§2) For the uninephrectomy experiments, the right kidneys were removed under anesthesia. For the medical treatment of mice, 50 mg kg −1 alpelisib (MedChem Tronica) in 1% carboxymethylcellulose (Sigma Aldrich)+0.5% Tween (Sigma Aldrich) or vehicle (1% carboxymethylcellulose+0.5% Tween) was administered by oral gavage daily for the indicated periods of time. Blood and urines were obtained at the indicated times. At euthanasia, blood, urines, kidneys were harvested. In some experiments, spleens, hearts, and bone marrow (BM) in femurs and tibias were harvested as well. Tissues were fixed in 4% paraformaldehyde and paraffin embedded for immunohistochemical analysis, snap-frozen in Optimal Cutting Temperature (OCT), or stored at −80° C. for mRNA or protein analysis.
(§3) Mouse blood counts were analyzed using a hematology analyzer (ProCyte Dx; IDEXX Laboratories). Mouse serum creatinine, blood urea nitrogen, urinary albumin, and urinary creatinine were evaluated using an AU5800 (Beckman Coulter) autoanalyzer. Serum anti-dsDNA measurement was performed according to the manufacturer's instruction using mouse anti-dsDNA ELISA kit (LBIS). The absorbance was measured using Ininite M Nano (TECAN).
(§4) 4-μm kidney sections were stained with periodic acid-Schiff (PAS), Masson's Trichrome (MT), Periodic acid metenamine silver (PAM) or Hematoxylin and Eosin (HE) staining for histological analysis. The degree of glomerular lesions was evaluated using the following scoring system: 0=no lesion, 1=affecting up to 25% of the glomerulus, 2=affecting 25-50% of the glomerulus, 3=affecting 50-75% of the glomerulus, and 4=affecting 75-100%. At least 50 glomeruli per sample were measured for each analysis. An indirect immunoperoxidase method was used for immunohistochemistry. Briefly, after deparaffinization, antigen retrieval was performed with citrate buffer (pH6) or Tris-EDTA buffer (pH9 or pH6) using microwave or high temperature (95° C.). Endogenous peroxidase activity was quenched using 3% hydrogen peroxide; nonspecific protein binding was blocked using 2.5% normal horse serum (Vector Laboratories), and endogenous biotin activity was quenched using the Avidin/Biotin Blocking Kit (Vector Laboratories). When using mouse primary antibodies on mouse tissue, Klear mouse blocking reagent (Diagomics) was used to block endogenous mouse immunoglobulins. After blocking, the tissue sections were incubated with the primary antibodies overnight at 4° C. The following primary antibodies were used: rabbit anti-Ki67 antibody (SP6; Thermo Fisher Scientific), rabbit anti-P-S6RP antibody (D68F8; Cell Signaling Technology), mouse anti-P-AKT (Ser473) antibody (587F11; Cell Signaling Technology), rabbit anti-P-AKT (Thr308) antibody (C31E5E; Cell Signaling Technology), mouse anti-S6RP antibody (54E2; Cell Signaling Technology), chicken anti-GFP antibody (Abcam), guinea pig anti-Nephrin antibody (GP-N2; Progen), rabbit anti-Podocin antibody (P0372; Sigma Aldrich), mouse anti-WTI antibody (6F-H2; DAKO). The corresponding secondary antibodies including anti-mouse IgG, anti-rabbit IgG, anti-guinea pig IgG, biotinylated anti-rabbit IgG (Vector Laboratories), and biotinylated anti-mouse IgG (Vector Laboratories) were applied. […]

The subject of another series is uninephrectomized mice. The description is as above. As to conditions: PIK3CA^WT mice, 2 weeks treatment.
Text: as §1, §2, §3, §4

Where [3] appears, read: 2 weeks after uninephrectomy, vs vehicle.

Take `Cc1nc(NC(=O)N2CCC[C@H]2C(N)=O)sc1-c1ccnc(C(C)(C)C(F)(F)F)c1` [alpelisib, Alpelisib]: in series [1], the “alpelisib in kidneys (LC-MS)” value is recorded as “detectable”. Moreover, in series [2] (setting [3]), the “expression of podocytes markers” value is reported as “higher expression of podocytes markers”; the glomerular lesion score entry is reported as “preserved glomerular”; the “kidney function (serum creatinine, BUN)” value is on record as “better kidney function”; the “podocyte AKT/mTOR pathway activation” value is on record as “decreased podocyte AKT/mTOR pathway activation”. Moreover, the tubular dilation entry in series [2] (setting [3]) is given as “fewer tubular dilation”. In addition, the “proteinuria (urinary albumin to creatinine ratio)” value in series [2] (nephrectomy at 8 weeks old, 2 weeks treatment) is reported as “significantly decreased”. Besides, the “kidney lesions (title of FIG. 2)” value in series [2] (uninephrectomized PIK3CAPod-HO mice) is given as “improves kidney lesions”. The “phenotype of uninephrectomized PIK3CA^WT control mice” value in the series with uninephrectomized mice was “no particular phenotype, without proteinuria or kidney dysfunction”.
